Results published in ChEMBL document CHEMBL1157238, “An unusual oxalylated tetramic acid from the New Zealand basidiomycete Chamonixia pachydermis” (2006).

Test system: Bacillus subtilis
Assay: Antibacterial activity against Bacillus subtilis at 40 ug by agar diffusion assay
Type: functional
Conditions: read-out: IZ

**Q.** Which zone of inhibition at 40 µg/disc does the source give for O=C(O)C(=O)C1=C(O)/C(=C/c2ccc(O)c(Cl)c2)NC1=O [PACHYDERMIN] here?
**A.** 1 mm
